Reference: patent US8809335B2, “Pyrazolopyrimidine kinase inhibitors” (Vertex Pharmaceuticals Incorporated, priority 2010, dated 2014)

Columns and labels:
Assay type in all cases: biochemical
PKC theta kinase = PKC theta kinase (Homo sapiens, UniProt Q04759); assay: PKC theta coupled-enzyme kinase assay (NADH consumption); conditions: 240 μM ATP, 18 nM PKC theta, 30° C.
Method: An assay buffer solution was prepared which consisted of 100 mM HEPES (pH 7.5), 10 mM MgCl2, 25 mM NaCl, 0.1 mM EDTA and 0.01% Brij. An enzyme buffer containing reagents to final assay concentrations of 0.00001% Triton X-100, 200 μg/mL Phosphatidylserine, 20 μg/mL Diacylglycerol, 360 μM NADH, 3 mM phosphoenolpyruvate, 70 μg/mL pyruvate kinase, 24 μg/mL lactate dehydrogenase, 2 mM DTT, 100 μM substrate peptide (ERMRPRKRQGSVRRRV SEQ ID NO. 1) and 18 nM PKC theta kinase was prepared in assay buffer. To 60 μL of this enzyme buffer, in a 384 well plate, was added 2 μL of VRT stock solution in DMSO. The mixture was allowed to equilibrate for 10 mins at 30° C. The enzyme reaction was initiated by the addition of 5 μL stock ATP solution prepared in assay buffer to a final assay concentration of 240 μM. Initial rate data was determined from the rate of change of absorbance at 340 nm (corresponding to stoichiometric consumption of NADH) using a Molecular Devices Spectramax plate reader (Sunnyvale, Calif.) over 15 mins at 30° C. For each Ki determination 12 data points covering the VRT concentration range of 0-20 μM were obtained in duplicate (DMSO stocks were prepared from an initial 10 mM VRT stock with subsequent 1:2 serial dilutions). Ki values were calculated from initial rate data by non-linear regression using the Prism software package (Prism 4.0a, Graphpad Software, San Diego, Calif.).

PKC delta kinase = PKC delta kinase (Homo sapiens, UniProt Q05655); assay: PKC delta coupled-enzyme kinase assay (NADH consumption); conditions: 150 μM ATP, 46 nM PKC delta, 30° C.
Method: An assay buffer solution was prepared which consisted of 100 mM HEPES (pH 7.5), 10 mM MgCl2, 25 mM NaCl, 0.1 mM EDTA and 0.01% Brij. An enzyme buffer containing reagents to final assay concentrations of 0.002% Triton X-100, 200 μg/mL Phosphatidylserine, 20 μg/mL Diacylglycerol, 360 μM NADH, 3 mM phosphoenolpyruvate, 70 μg/mL pyruvate kinase, 24 μg/mL lactate dehydrogenase, 2 mM DTT, 150 μM substrate peptide (ERMRPRKRQGSVRRRV SEQ ID NO. 2) and 46 nM PKC delta kinase was prepared in assay buffer. To 16 μL of this enzyme buffer, in a 384 well plate, was added 1 μL of VRT stock solution in DMSO. The mixture was allowed to equilibrate for 10 mins at 30° C. The enzyme reaction was initiated by the addition of 16 μL stock ATP solution prepared in assay buffer to a final assay concentration of 150 μM. Initial rate data was determined from the rate of change of absorbance at 340 nm (corresponding to stoichiometric consumption of NADH) using a Molecular Devices Spectramax plate reader (Sunnyvale, Calif.) over 15 mins at 30° C. For each Ki determination 12 data points covering the VRT concentration range of 0-20 μM were obtained in duplicate (DMSO stocks were prepared from an initial 10 mM VRT stock with subsequent 1:2 serial dilutions). Ki values were calculated from initial rate data by non-linear regression using the Prism software package (Prism 4.0a, Graphpad Software, San Diego, Calif.).

PKC alpha kinase = PKC alpha kinase (Homo sapiens, UniProt P17252); assay: PKC alpha coupled-enzyme kinase assay (NADH consumption); conditions: 130 μM ATP, 4.5 nM PKC alpha, 30° C.
Method: An assay buffer solution was prepared which consisted of 100 mM HEPES (pH 7.5), 10 mM MgCl2, 25 mM NaCl, 0.1 mM EDTA, 100 μM CaCl2 and 0.01% Brij. An enzyme buffer containing reagents to final assay concentrations of 0.002% Triton X-100, 100 μg/mL Phosphatidylserine, 20 μg/mL Diacylglycerol, 360 μM NADH, 3 mM phosphoenolpyruvate, 70 μg/mL pyruvate kinase, 24 μg/mL lactate dehydrogenase, 2 mM DTT, 150 μM substrate peptide (RRRRRKGSFKRKA SEQ ID NO. 1) and 4.5 nM PKC alpha kinase was prepared in assay buffer. To 16 μL of this enzyme buffer, in a 384 well plate, was added 1 μL of VRT stock solution in DMSO. The mixture was allowed to equilibrate for 10 mins at 30° C. The enzyme reaction was initiated by the addition of 16 μL stock ATP solution prepared in assay buffer to a final assay concentration of 130 μM. Initial rate data was determined from the rate of change of absorbance at 340 nm (corresponding to stoichiometric consumption of NADH) using a Molecular Devices Spectramax plate reader (Sunnyvale, Calif.) over 15 mins at 30° C. […] Ki values were calculated from initial rate data by non-linear regression using the Prism software package (Prism 4.0a, Graphpad Software, San Diego, Calif.).

PKC delta kinase, sequence (Q05655 whole entry): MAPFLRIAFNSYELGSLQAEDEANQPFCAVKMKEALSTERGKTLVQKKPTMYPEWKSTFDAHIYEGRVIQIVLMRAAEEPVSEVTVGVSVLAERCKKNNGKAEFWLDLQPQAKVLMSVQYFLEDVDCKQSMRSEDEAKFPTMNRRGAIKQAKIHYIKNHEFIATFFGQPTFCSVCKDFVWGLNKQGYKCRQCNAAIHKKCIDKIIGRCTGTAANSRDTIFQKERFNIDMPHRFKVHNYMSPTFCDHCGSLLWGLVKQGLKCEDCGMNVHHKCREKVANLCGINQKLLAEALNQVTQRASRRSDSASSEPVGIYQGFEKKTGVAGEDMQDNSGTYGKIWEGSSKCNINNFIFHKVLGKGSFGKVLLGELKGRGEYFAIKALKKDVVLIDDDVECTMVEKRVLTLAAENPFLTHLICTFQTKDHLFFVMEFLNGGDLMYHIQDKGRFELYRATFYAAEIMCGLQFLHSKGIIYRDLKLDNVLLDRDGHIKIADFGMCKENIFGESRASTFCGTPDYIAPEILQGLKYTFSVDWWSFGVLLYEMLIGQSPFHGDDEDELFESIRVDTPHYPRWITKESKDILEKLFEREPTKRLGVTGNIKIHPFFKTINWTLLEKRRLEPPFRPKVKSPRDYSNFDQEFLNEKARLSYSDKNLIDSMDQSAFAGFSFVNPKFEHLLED
PKC theta kinase, sequence (Q04759 whole entry): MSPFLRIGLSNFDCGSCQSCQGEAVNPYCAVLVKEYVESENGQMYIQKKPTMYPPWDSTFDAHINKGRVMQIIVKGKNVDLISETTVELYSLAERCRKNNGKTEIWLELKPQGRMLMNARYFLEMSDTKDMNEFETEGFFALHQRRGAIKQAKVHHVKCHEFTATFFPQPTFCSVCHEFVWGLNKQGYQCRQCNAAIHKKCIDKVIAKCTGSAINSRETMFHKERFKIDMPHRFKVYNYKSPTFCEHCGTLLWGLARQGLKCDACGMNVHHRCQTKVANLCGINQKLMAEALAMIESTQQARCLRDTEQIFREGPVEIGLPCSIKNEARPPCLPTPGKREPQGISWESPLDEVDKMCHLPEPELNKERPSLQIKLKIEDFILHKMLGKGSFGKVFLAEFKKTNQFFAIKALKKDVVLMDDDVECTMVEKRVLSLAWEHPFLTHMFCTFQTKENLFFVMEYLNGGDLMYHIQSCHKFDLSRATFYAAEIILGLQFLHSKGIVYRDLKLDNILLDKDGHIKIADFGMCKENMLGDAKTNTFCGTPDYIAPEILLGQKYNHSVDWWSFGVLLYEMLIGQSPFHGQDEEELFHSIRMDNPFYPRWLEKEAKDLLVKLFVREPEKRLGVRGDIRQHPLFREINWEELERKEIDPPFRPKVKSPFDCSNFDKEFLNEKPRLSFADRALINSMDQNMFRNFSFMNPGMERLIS

SMILES: CCOc1ncnc2[nH]nc(-c3cccc(N4CCNC(CC(C)C)C4)n3)c12 (stereo not drawn) [Compound 1, 4-ethoxy-3-(6-(3-isobutylpiperazin-1-yl)pyridin-2-yl)-1H-pyrazolo[3,4-d]pyrimidine]
- Ki (PKC theta kinase): < 2800 nM
- Ki (PKC delta kinase): > 1250 nM
- Ki (PKC alpha kinase): > 1250 nM

SMILES: CC(C)[C@@](C)(O)[C@@H]1CN(c2nc(-c3n[nH]c4ncncc34)c(F)cc2F)CCN1 [Compound 2, (R)-2-((S)-4-(3,5-difluoro-6-(1H-pyrazolo[3,4-d]pyrimidin-3-yl)pyridin-2-yl)piperazin-2-yl)-3-methylbutan-2-ol]
- Ki (PKC theta kinase): < 1 nM
- Ki (PKC delta kinase): < 500 nM
- Ki (PKC alpha kinase): < 2800 nM
